Entries after “also recorded” stand apart in the source; their conditions may differ.
How the values were obtained:
[1] = system: adult subjects with late-onset Pompe disease (LOPD); assay: Study ATB200-03: global test and responder analyses on 6MWD, FVC, MMT; assay type: in vivo, human
Text: To support the interpretation of clinical benefit, a composite subject-level response was defined based on the totality of the treatment outcome data. Subjects were classified by an ordinal response variable consisting of significant improvement, moderate improvement, or minor/no improvement based on treatment outcomes.
Thresholds for clinically relevant changes for 6MWD and FVC in Pompe specifically are not well established, however a large body of data exists from other neuromuscular and chronic respiratory diseases, especially interstitial pulmonary fibrosis (IPF). […] Accordingly, these thresholds were applied to analyses of Study ATB200-03 data.
Additional post hoc patient-level analyses were conducted using these thresholds for 6MWD (±6%) and FVC (±3%) separately and combined.

adult subjects with LOPD [2] = assay: Study ATB200-07 (OLE): sitting % predicted FVC; assay type: in vivo, human
Text: The study doses and schedule are maintained from Study ATB200-03.
Efficacy data are presented in this summary as change from the baseline of Study ATB200-03 (OLE-ES Population).

adult subjects with LOPD [3] = assay: Study ATB200-07 (OLE): CK
Method: The Phase III double-blind PROPEL study (NCT03729362; ATB200-03) described in Examples 9 and 10 above compared the investigational two-component therapy cipaglucosidase alfa/miglustat (cipa/mig) with alglucosidase alfa/placebo (alglu) in adults with late-onset Pompe disease (LOPD) over 52 weeks. The ongoing open-label extension (OLE) of PROPEL (NCT04138277; ATB200-07) evaluates long-term safety and efficacy of cipa/mig. Outcomes include 6 minute walk distance (6MWD), forced vital capacity (FVC), creatine kinase (CK) and hexose tetrasaccharide (Hex4) levels and safety. Data are reported as change from the PROPEL baseline to OLE week 52 (104 weeks after the PROPEL baseline).

[4] = system: adult subjects with Pompe disease; assay: Pooled Studies ATB200-02/03/07 (Pool 2): 6MWD by exposure interval
Method: (§1) The pooled efficacy analyses presented within this section include the outlier (Pool 2). […] Pooled efficacy analyses excluding the outlier subject (Pool 2A) were also performed.
(§2) No long-term data for the alglucosidase alfa/placebo group are available, as all subjects switched to cipaglucosidase alfa/miglustat in Study ATB200-07.
(§3) Efficacy data from the 3 adult Pompe disease clinical studies were pooled and analyzed to further support the long-term efficacy of cipaglucosidase alfa/miglustat in adult subjects. Data from non-ambulatory subjects (Study ATB200-02 Cohort 2) were not included in the pool as there was little overlap of efficacy endpoints for this group with the various ambulatory groups, such as 6MWD and lower MMT.
(§4) The 3 adult Pompe disease clinical studies were pooled as follows: • The cipaglucosidase alfa/miglustat treatment group consists of: • All ambulatory subjects in Study ATB200-02 (Cohorts 1, 3, and 4), • All subjects randomized to the cipaglucosidase alfa/miglustat treatment group in Study ATB200-03, and • All subjects enrolled in Study ATB200-07. • The alglucosidase alfa/placebo treatment group consists of: • All subjects randomized to the ERT treatment group in Study ATB200-03.

[5] = system: adult subjects with Pompe disease; assay: Pooled Studies ATB200-02/03/07 (Pool 2): sitting % predicted FVC by exposure interval
Method: as §1, §2, §3, §4

[6] = ITT Population, change from baseline to Week 52, 2-sided p 0.022
[7] = Study ATB200-03 baseline, OLE-ES Population excluding Subject 4005-2511
[8] = change from ATB200-03 baseline at Week 52, OLE-ES excluding Subject 4005-2511
[9] = change from ATB200-03 baseline at Week 104, alglucosidase alfa/placebo group switched to cipaglucosidase alfa/miglustat at Week 52, OLE-ES excluding Subject 4005-2511
[10] = exposure interval >15 to ≤24 months, Pool 2, including the outlier
[11] = exposure interval >24 months, Pool 2, including the outlier
[12] = exposure interval ≤15 months, Pool 2, Efficacy Population including the outlier
[13] = exposure interval ≤15 months, Pool 2, including the outlier
[14] = exposure interval ≤15 months, last available post-baseline value − baseline, Pool 2, including the outlier

Substance: ATB200/miglustat: two-component therapy: cipaglucosidase alfa (ATB200) administered in conjunction with miglustat (AT2221), a stabilizer of cipaglucosidase alfa
- Wilcoxon rank sum test on sum of ranks for 6MWD and FVC: Mean Score [1, 6]: 66.5
- Wilcoxon rank sum test on sum of ranks for 6MWD and FVC: Sum of Scores [1, 6]: 5587.5
- post hoc global test on 6MWD and % predicted FVC ([1]; Wilcoxon rank-sum on summed ranks, listed as cipaglucosidase alfa/miglustat): greater improvement in either 6MWD or FVC; also recorded: greater improvement in subjects treated with cipaglucosidase alfa/miglustat versus alglucosidase alfa/placebo
- patient-level responder analyses 6MWD, FVC, MMT ([1]; thresholds ±6%, ±3%, ±7%, overall population, listed as cipaglucosidase alfa/miglustat): a greater proportion of subjects in the overall population treated with cipaglucosidase alfa/miglustat demonstrated clinically meaningful improvement and a smaller proportion demonstrated clinically meaningful worsening across these 3 endpoints; also recorded: significantly greater proportion of subjects with improvement on both domains
- sitting % predicted FVC course to Week 104 (adult subjects with LOPD [2]; OLE-ES Population, continued cipaglucosidase alfa/miglustat): showed a slight decline from baseline through Study ATB200-03, then stabilized through Week 104
- Sitting FVC, mean BSL (adult subjects with LOPD [2]; [7]): 70.7 % predicted
- Sitting FVC, mean 52-wk CFB (adult subjects with LOPD [2]; [8]): −1.1 % predicted
- Sitting FVC, mean 104-wk CFB (adult subjects with LOPD [2]; [9]): −1.6 % predicted
- CK course to Week 104 (adult subjects with LOPD [3]; OLE-ES Population, listed as cipaglucosidase alfa/miglustat): CK and Hex4 declined substantially through Study ATB200-03, then stabilized through Study ATB200-07; also recorded: declined substantially after subjects switched to cipaglucosidase alfa/miglustat through Week 104
- CK, mean BSL (adult subjects with LOPD [3]; [7]): 440.6
- CK, mean 52-wk CFB (adult subjects with LOPD [3]; [8]): −129.1
- CK, mean 104-wk CFB (adult subjects with LOPD [3]; [9]): −154.9
- mean (SD) improvement in % predicted 6MWD ([4]; after at least 24 months (n=70)): 3.3 (10.84)
- mean (SD) improvement in 6MWD ([4]; exposure >15 to ≤24 months (n=108)): 17.7 (55.61) meters
- mean (SD) improvement in 6MWD ([4]; exposure >24 months (n=70)): 9.7 (67.13) meters
- 6MWD Baseline, Mean [4, 10]: 366.33 meters
- 6MWD Baseline, Median [4, 10]: 369.25 meters
- 6MWD change from baseline, mean [4, 10]: 17.67 meters
- 6MWD change from baseline, median [4, 10]: 11.75 meters
- 6MWD Baseline, Mean [4, 11]: 367.77 meters
- 6MWD Baseline, Median [4, 11]: 376.43 meters
- 6MWD change from baseline, mean [4, 11]: 9.67 meters
- 6MWD change from baseline, median [4, 11]: 5.23 meters
- 6MWD Baseline, Mean [4, 12]: 367.10 meters
- 6MWD Baseline, Median [4, 13]: 373.75 meters
- 6MWD change from baseline, median [4, 13]: 12.00 meters
- 6MWD change from baseline, mean [4, 14]: 17.13 meters
- mean (SD) improvement in 6MWD ([4]; exposure ≤15 months (n=143)): 17.1 (44.92) meters
- mean (SD) change from baseline in % predicted FVC ([5]; exposure >15 to ≤24 months (n=97)): -0.88 (7.103)
- mean (SD) change from baseline in % predicted FVC ([5]; exposure >24 months (n=68)): −2.55 (8.393)
- Sitting % Predicted FVC Baseline, Mean [5, 10]: 66.89 % predicted
- Sitting % Predicted FVC Baseline, Median [5, 10]: 67.50 % predicted
- sitting % predicted FVC change from baseline, mean [5, 10]: −0.88 % predicted
- sitting % predicted FVC change from baseline, median [5, 10]: −1.00 % predicted
- Sitting % Predicted FVC Baseline, Mean [5, 11]: 67.15 % predicted
- Sitting % Predicted FVC Baseline, Median [5, 11]: 69.00 % predicted
- sitting % predicted FVC change from baseline, mean [5, 11]: −2.55 % predicted
- sitting % predicted FVC change from baseline, median [5, 11]: −2.25 % predicted
- Sitting % Predicted FVC Baseline, Mean [5, 12]: 67.51 % predicted
- Sitting % Predicted FVC Baseline, Median [5, 13]: 68.00 % predicted
- sitting % predicted FVC change from baseline, median [5, 13]: −1.00 % predicted
- sitting % predicted FVC change from baseline, mean [5, 14]: −0.74 % predicted
- mean (SD) change from baseline in % predicted FVC ([5]; exposure ≤15 months (n=139)): -0.74 (6.121)
